From patent US6403589B1, “Method of treating pain with draflazine-analogues” (Janssen Pharmaceutica N.V., priority 1997, dated 2002)

Key:
[1] = system: patients with unstable angina; conditions: during the 24 hour observation period; draflazine treated patients with unstable angina; cited from earlier work
mice = conditions: acute pain stimulus; cited from earlier work
dogs = conditions: acute pain stimulus; cited from earlier work
rabbits = conditions: acute pain stimulus; cited from earlier work

Structure (SMILES): CNC(=O)C1CN(CC(=O)Nc2c(Cl)cccc2C(C)=O)CCN1CCCC=C(c1ccc(F)cc1)c1ccc(F)cc1.O=C(O)C(=O)O.O=C(O)C(=O)O (racemic) [Compound 18, (±)-N-(2-acetyl-6-chlorophenyl)-4-[5,5-bis(4-fluorophenyl)-4-pentenyl]-3-[(methylamino)carbonyl]-1-piperazineacetamide ethanedioate (1:2)]
- melting point: 140 °C

Structure (SMILES): CNC(=O)C1CN(CC(=O)Nc2c(C)cc(C)cc2C)CCN1CCCC(c1ccc(F)cc1)c1ccc(F)cc1 (stereo not shown) [Compound 1, 4-[4,4-bis(4-fluorophenyl)butyl]-3-[(methylamino)-carbonyl]-N-(2,4,6-trimethylphenyl)-1-piperazineacetamide]
- melting point: 82.3 °C

Structure (SMILES): NC(=O)[C@@H]1CN(CCCCC(c2ccc(F)cc2)c2ccc(F)cc2)CCN1CC(=O)Nc1c(Cl)cc(N)cc1Cl [Compound 13, S-(−)-2-(aminocarbonyl)-N-(4-amino-2,6-dichlorophenyl)-4-[5,5-bis(4-fluorophenyl)-pentyl]-1-piperazineacetamide]
- mean duration of chest pain [1]: 75.5 min

Structure (SMILES): Cc1cccc(C)c1NC(=O)CN1CCN(CCCC(c2ccc(F)cc2)c2ccc(F)cc2)CC1 [lidoflazine]
- reaction time to thermal stimulation (mice): significantly increased
- pain treshold to electrical stimulation of canine teeth (dogs): not
- pain treshold to electrical stimulation of incisor teeth (rabbits): increased

Structure (SMILES): CNC(=O)C1CN(CCCC(c2ccc(F)cc2)c2ccc(F)cc2)CCN1CC(=O)Nc1c(C)cc(C)cc1C (stereo not shown) [Compound 2, 4-[4,4-bis(4-fluorophenyl)butyl]-2-[(methylamino)carbonyl]-N-(2,4,6-trimethylphenyl)-1-piperazineacetamide]
- melting point: 90.2 °C
